Measured values reported in ChEMBL document CHEMBL5528027, “Target identification, and optimization of dioxygenated amide derivatives as potent antibacterial agents with FabH inhibitory activity” (Eur J Med Chem, 2024).
Converted amounts (≈) assume the structure as drawn. The source made the active and inactive calls. The calls are words filed in the database; no cut-off is given here.

Tests used:
Escherichia coli = test: Antibacterial activity against Escherichia coli assessed as reduction in bacterial growth measured after 24 hrs by two-fold serial dilution method; type: functional
Pseudomonas aeruginosa = test: Antibacterial activity against Pseudomonas aeruginosa assessed as reduction in bacterial growth measured after 24 hrs by two-fold serial dilution method; type: functional
Bacillus subtilis = test: Antibacterial activity against Bacillus subtilis assessed as reduction in bacterial growth measured after 24 hrs by two-fold serial dilution method; type: functional
Staphylococcus aureus [1] = test: Antibacterial activity against Staphylococcus aureus assessed as reduction in bacterial growth measured after 24 hrs by two-fold serial dilution method; type: functional
Klebsiella pneumoniae = test: Antibacterial activity against Klebsiella pneumoniae assessed as reduction in bacterial growth measured after 24 hrs by two-fold serial dilution method; type: functional
Streptococcus pneumoniae = test: Antibacterial activity against Streptococcus pneumoniae assessed as reduction in bacterial growth measured after 24 hrs by two-fold serial dilution method; type: functional
[2] = molecular target: T1, Beta-ketoacyl-[acyl-carrier-protein] synthase III (Escherichia coli K-12, UniProt P0A6R0); test: Inhibition of Escherichia coli FabH
T1 sequence (P0A6R0 whole entry): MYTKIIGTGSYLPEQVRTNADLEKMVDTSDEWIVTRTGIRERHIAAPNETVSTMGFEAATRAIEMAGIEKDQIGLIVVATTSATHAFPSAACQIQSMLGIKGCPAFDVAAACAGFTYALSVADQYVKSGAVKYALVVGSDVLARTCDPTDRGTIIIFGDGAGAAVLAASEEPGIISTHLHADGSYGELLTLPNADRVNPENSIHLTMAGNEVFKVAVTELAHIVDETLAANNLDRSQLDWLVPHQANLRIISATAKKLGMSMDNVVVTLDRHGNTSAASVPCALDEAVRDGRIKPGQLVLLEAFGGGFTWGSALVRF

Erythrocyte = test: Hemolytic activity in human erythrocytes assessed as hemolysis by spectrophotometric analysis; type: toxicity, cell-based
[3] = Cytotoxicity against mouse NIH3T3 cells incubated for 24 hrs by MTT analysis; type: toxicity, cell-based
[4] = molecular target: T1, Beta-ketoacyl-[acyl-carrier-protein] synthase III; test: Binding affinity to Escherichia coli FabH assessed as dissociation constant by Isothermal titration calorimetry method
[5] = molecular target: T2, Beta-ketoacyl-[acyl-carrier-protein] synthase III (Escherichia coli K-12) (UniProt P0A6R0); test: Binding affinity to Escherichia coli FabH assessed as change in enthalpy by Isothermal titration calorimetry method
T2 sequence (whole entry): T1 sequence (P0A6R0 whole entry)

[6] = molecular target: T2, Beta-ketoacyl-[acyl-carrier-protein] synthase III (Escherichia coli K-12); test: Binding affinity to Escherichia coli FabH assessed as change in entropy by Isothermal titration calorimetry method
[7] = molecular target: T2, Beta-ketoacyl-[acyl-carrier-protein] synthase III (Escherichia coli K-12); test: Binding affinity to Escherichia coli FabH assessed as change in Gibbs free energy by Isothermal titration calorimetry method
Staphylococcus aureus [8] = test: In vivo antibacterial activity against Staphylococcus aureus infected in Sprague-Dawley rat skin infection model assessed in shrink of wound area measured after 3 days; type: functional, organism-based; details: time 3.0 day
Staphylococcus aureus [9] = test: In vivo antibacterial activity against Staphylococcus aureus infected in Sprague-Dawley rat skin infection model assessed in reduction of wound exudation measured after 3 days; type: functional, organism-based; details: time 3.0 day
Staphylococcus aureus [10] = test: In vivo antibacterial activity against Staphylococcus aureus infected in Sprague-Dawley rat skin infection model assessed in reduction of wound pus measured after 3 days; type: functional, organism-based; details: time 3.0 day
Staphylococcus aureus [11] = test: In vivo antibacterial activity against Staphylococcus aureus infected in Sprague-Dawley rat skin infection model assessed in reduction of wound size measured after 6 days; type: functional, organism-based; details: time 6.0 day
Staphylococcus aureus [12] = test: In vivo antibacterial activity against Staphylococcus aureus infected in Sprague-Dawley rat skin infection model assessed in wound healing measured after 10 days (reference value: 70.8%); type: functional; details: time 10 day
Staphylococcus aureus [13] = test: In vivo antibacterial activity against Staphylococcus aureus infected in Sprague-Dawley rat skin infection model assessed in decrease in number of inflammatory cells within wound tissue measured after 3 to 10 days by H and E staining based analysis; type: functional, organism-based; details: time 3-10 day

MIC (Escherichia coli): 1.56 µg/mL (≈ 4.26 µM)
MIC (Pseudomonas aeruginosa): 1.56 µg/mL (≈ 4.26 µM)
MIC (Bacillus subtilis): 3.13 µg/mL (≈ 8.54 µM)
MIC (Staphylococcus aureus [1]): 3.13 µg/mL (≈ 8.54 µM)
MIC (Klebsiella pneumoniae): 1.56 µg/mL (≈ 4.26 µM)
MIC (Streptococcus pneumoniae): 6.25 µg/mL (≈ 17.1 µM)
IC50 [2]: 2 µM
Kd [4]: 21.5 µM
deltaH [5]: -80 kcal/mol
TdeltaS [6]: -73.6 kcal/mol
deltaG [7]: -6.4 kcal/mol
SMILES: COC(=O)c1c[nH]c2cc(NC(=O)c3ccc4c(c3)OCCCO4)ccc12
HC30 (Erythrocyte): > 10 µg/mL
IC50 at 24 h [3]: 142 µM
Activity (Staphylococcus aureus [8]): Active
Activity (Staphylococcus aureus [9]): Active
Activity (Staphylococcus aureus [10]): Active
Activity (Staphylococcus aureus [11]): Active
Activity (Staphylococcus aureus [12]): 94%
Activity (Staphylococcus aureus [13]): Active
